By IC50 is commonly meant the midpoint of a concentration-inhibition curve. Lower therefore signals higher potency.

This assay deals with T1, hTDO2 (Homo sapiens, UniProt P48775).
T1 construct: endogenous in cells; host or cells: A172 human brain glioblastoma cells (ATCC CRL-1620)
T1 sequence (P48775 whole entry): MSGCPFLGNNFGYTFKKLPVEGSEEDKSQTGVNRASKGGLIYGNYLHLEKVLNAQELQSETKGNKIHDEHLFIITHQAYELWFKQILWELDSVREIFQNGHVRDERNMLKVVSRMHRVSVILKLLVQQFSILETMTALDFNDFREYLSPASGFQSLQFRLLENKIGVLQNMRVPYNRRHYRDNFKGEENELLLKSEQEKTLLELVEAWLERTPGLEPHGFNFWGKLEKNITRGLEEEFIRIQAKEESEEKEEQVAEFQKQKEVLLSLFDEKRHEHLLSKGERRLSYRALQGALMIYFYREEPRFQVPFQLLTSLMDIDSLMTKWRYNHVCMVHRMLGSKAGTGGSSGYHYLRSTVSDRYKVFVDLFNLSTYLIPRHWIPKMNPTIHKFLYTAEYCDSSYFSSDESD
The assay can be described thus: Cellular assay for TDO2 activity determination in A172 cells. In kind it is cell-based. The note with it: human glioblastoma A172 cells naturally expressing hTDO2; overnight incubation; kynurenine by absorbance at 480 nm. A digest of the protocol: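 A172 glioblastoma cells endogenously expressing hTDO2, 1.25×10^4 cells/well, incubated overnight at 37 °C, 5% CO2 in IMDM with 2% FBS and ten compound concentrations. Supernatant kynurenine measured after TCA treatment and Ehrlich's reagent (4-dimethylaminobenzaldehyde) by absorbance at 480 nm against a kynurenine standard curve, then curve-fitted.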
Turning to `COC(=O)NCC1NS(=O)(=O)c2ccc(-c3c[nH]c4cc(F)ccc34)cc21` (single isomer, unassigned; (+)) [Example 22, (+)-methyl ((5-(6-fluoro-1H-indol-3-yl)-1,1-dioxido-2,3-dihydrobenzo[d]isothiazol-3-yl)methyl)carbamate], the midpoint of inhibition, the IC50, lay at 0.647 µM.
The result for `CNC(=O)CCN1C(C)c2cc(-c3c[nH]c4cc(F)ccc34)ccc2S1(=O)=O` (single isomer, unassigned; (-)) [Example 46, (−)-3-(5-(6-fluoro-1H-indol-3-yl)-3-methyl-1,1-dioxidobenzo[d]isothiazol-2(3H)-yl)-N-methylpropanamide] reads 0.328 µM; that for `CNC(=O)C(C)N1C(C)c2cc(-c3c[nH]c4cc(F)ccc34)ccc2S1(=O)=O` (single isomer, unassigned; (-)) [Example 148, (−)-2-(5-(6-fluoro-1H-indol-3-yl)-3-methyl-1,1-dioxidobenzo[d]isothiazol-2(3H)-yl)-N-methylpropanamide], 0.265 µM.
`CC1=NS(=O)(=O)c2ccc(-c3c[nH]c4cc(F)ccc34)cc21` [Example 135, 5-(6-fluoro-1H-indol-3-yl)-3-methylbenzo[d]isothiazole 1,1-dioxide] yielded an IC50 of 0.183 µM.
In the case of `CNC(=O)C(O)CN1C(C)c2cc(-c3c[nH]c4cc(F)ccc34)ccc2S1(=O)=O` (single isomer, unassigned; (-)) [Example 98, (−)-3-(5-(6-fluoro-1H-indol-3-yl)-3-methyl-1,1-dioxidobenzo[d]isothiazol-2(3H)-yl)-2-hydroxy-N-methylpropanamide], inhibition was half-maximal at 0.115 µM (IC50).
The result for `CNC(=O)CCN1C(C)c2cc(-c3c[nH]c4cc(F)ccc34)ccc2S1(=O)=O` (single isomer, unassigned; (+)) [Example 45, (+)-3-(5-(6-fluoro-1H-indol-3-yl)-3-methyl-1,1-dioxidobenzo[d]-isothiazol-2(3H)-yl)-N-methylpropanamide] reads 0.071 µM; that for `CC1c2cc(-c3c[nH]c4cc(F)ccc34)ccc2S(=O)(=O)N1C1CCNCC1` (single isomer, unassigned; (+)) [Example 52, (+)-5-(6-fluoro-1H-indol-3-yl)-3-methyl-2-(piperidin-4-yl)-2,3-dihydrobenzo[d]isothiazole 1,1-dioxide], 0.563 µM.
The result for `CNC(=O)C(CN1C(C)c2cc(-c3c[nH]c4cc(F)ccc34)ccc2S1(=O)=O)OC` (single isomer, unassigned; (+)) [Example 105, (+)-3-(5-(6-fluoro-1H-indol-3-yl)-3-methyl-1,1-dioxidobenzo[d]isothiazol-2(3H)-yl)-2-methoxy-N-methylpropanamide] reads 0.188 µM; that for `CC(=O)N1CCC(N2C(C)c3cc(-c4c[nH]c5cc(F)ccc45)ccc3S2(=O)=O)C1` (single isomer, unassigned; (-)) [Example 76, (−)-1-(3-(5-(6-fluoro-1H-indol-3-yl)-3-methyl-1,1-dioxidobenzo[d]isothiazol-2(3H)-yl)pyrrolidin-1-yl)ethanone], 0.061 µM.
The result for `CC1c2cc(-c3c[nH]c4cc(F)ccc34)ccc2S(=O)(=O)N1CC(=O)N(C)C` (single isomer, unassigned; (+)) [Example 114, (+) 2-(5-(6-fluoro-1H-indol-3-yl)-3-methyl-1,1-dioxidobenzo[d]isothiazol-2(3H)-yl)-N,N-dimethylacetamide] reads 0.239 µM; that for `O=S1(=O)NC(C2CC2)c2cc(-c3c[nH]c4cc(F)ccc34)ccc21` (single isomer, unassigned; (-)) [Example 11, (−)-3-cyclopropyl-5-(6-fluoro-1H-indol-3-yl)-2,3-dihydrobenzo[d]isothiazole 1,1-dioxide], 0.103 µM.
Molecule `NCCN1Cc2cc(-c3c[nH]c4cc(F)ccc34)ccc2S1(=O)=O` [Example 31, 2-(2-aminoethyl)-5-(6-fluoro-1H-indol-3-yl)-2,3-dihydrobenzo[d]isothiazole 1,1-dioxide] yielded an IC50 of 0.221 µM.
In the case of `CNC(=O)CN1C(CO)c2cc(-c3c[nH]c4cc(F)ccc34)ccc2S1(=O)=O` (single isomer, unassigned; (+)) [Example 128, (+)-2-(5-(6-fluoro-1H-indol-3-yl)-3-(hydroxymethyl)-1,1-dioxidobenzo[d]isothiazol-2(3H)-yl)-N-methylacetamide], 0.079 µM corresponded to half-maximal inhibition (IC50).
For `CNC(=O)C(N)CN1C(C)c2cc(-c3c[nH]c4cc(F)ccc34)ccc2S1(=O)=O` (single isomer, unassigned; (+)) [Example 102, (+)-2-amino-3-(5-(6-fluoro-1H-indol-3-yl)-3-methyl-1,1-dioxidobenzo[d]isothiazol-2(3H)-yl)-N-methylpropanamide], the IC50 turned out to be 0.114 µM.
The result for `Cn1cnc(CN2C(CO)c3cc(-c4c[nH]c5cc(F)ccc45)ccc3S2(=O)=O)n1` (single isomer, unassigned; (+)) [Example 130, (+)-5-(6-fluoro-1H-indol-3-yl)-3-(hydroxymethyl)-2-((1-methyl-1H-1,2,4-triazol-3-yl)methyl)-2,3-dihydrobenzo[d]isothiazole 1,1-dioxide] reads 0.112 µM; that for `CC1c2cc(-c3c[nH]c4cc(F)ccc34)ccc2S(=O)(=O)N1Cc1ccccn1` (centres unmarked) [Example 149, 5-(6-fluoro-1H-indol-3-yl)-3-methyl-2-(pyridin-2-ylmethyl)-2,3-dihydrobenzo[d]isothiazole 1,1-dioxide], 0.397 µM; that for `O=S1(=O)NC(C2CC2)c2cc(-c3c[nH]c4cc(F)ccc34)ccc21` (single isomer, unassigned; (+)) [Example 10, (+)-3-cyclopropyl-5-(6-fluoro-1H-indol-3-yl)-2,3-dihydrobenzo[d]isothiazole 1,1-dioxide], 0.24 µM.
`O=S1(=O)c2ccc(-c3c[nH]c4cc(F)ccc34)cc2C(CO)N1CC(O)CO` (single isomer, unassigned; (-)) [Example 142, (−)-2-(2,3-dihydroxypropyl)-5-(6-fluoro-1H-indol-3-yl)-3-(hydroxymethyl)-2,3-dihydrobenzo[d]isothiazole 1,1-dioxide]: the IC50 worked out at 0.124 µM.
Molecule `CNC(=O)C(O)CN1C(C)c2cc(-c3c[nH]c4cc(F)ccc34)ccc2S1(=O)=O` (single isomer, unassigned; (+)) [Example 99, (+)-3-(5-(6-fluoro-1H-indol-3-yl)-3-methyl-1,1-dioxidobenzo[d]isothiazol-2(3H)-yl)-2-hydroxy-N-methylpropanamide] gave an IC50 of 0.18 µM.
The result for `CC(=O)N1CCC(N2C(C)c3cc(-c4c[nH]c5cc(F)ccc45)ccc3S2(=O)=O)C1` (single isomer, unassigned; (-)) [Example 75, (−)-1-(3-(5-(6-fluoro-1H-indol-3-yl)-3-methyl-1,1-dioxidobenzo[d]isothiazol-2(3H)-yl)pyrrolidin-1-yl)ethanone] reads 0.049 µM; that for `CC1c2cc(-c3c[nH]c4cc(F)ccc34)ccc2S(=O)(=O)N1CC(N)=O` (single isomer, unassigned; (-)) [Example 116], 0.026 µM; that for `CC1c2cc(-c3c[nH]c4cc(F)ccc34)ccc2S(=O)(=O)N1CC[S+](C)[O-]` (single isomer, unassigned; (+)) [Example 58, (+)-5-(6-fluoro-1H-indol-3-yl)-3-methyl-2-(2-(methylsulfinyl)ethyl)-2,3-dihydrobenzo[d]isothiazole 1,1-dioxide], 0.267 µM.
With `CC1c2cc(-c3c[nH]c4cc(F)ccc34)ccc2S(=O)(=O)N1C[C@]1(C)CCC(=O)N1` (single isomer, unassigned; (+)) [Example 82] the figure was 0.061 µM; with `CC1c2cc(-c3c[nH]c4cc(F)ccc34)ccc2S(=O)(=O)N1CC[S+](C)[O-]` (single isomer, unassigned; (-)) [Example 57, (−)-5-(6-fluoro-1H-indol-3-yl)-3-methyl-2-(2-(methylsulfinyl)ethyl)-2,3-dihydrobenzo[d]isothiazole 1,1-dioxide], 0.061 µM; with `CC1c2cc(-c3c[nH]c4cc(F)ccc34)ccc2S(=O)(=O)N1CC1(C)COC(=O)N1` (single isomer, unassigned; (+)) [Example 89, (+)-4-((5-(6-fluoro-1H-indol-3-yl)-3-methyl-1,1-dioxidobenzo[d]isothiazol-2(3H)-yl)methyl)-4-methyloxazolidin-2-one], 0.058 µM.
With `CC1c2cc(-c3c[nH]c4cc(F)ccc34)ccc2S(=O)(=O)N1CC1CCNCC1` (single isomer, unassigned; (-)) [Example 77, (−) 5-(6-fluoro-1H-indol-3-yl)-3-methyl-2-(piperidin-4-ylmethyl)-2,3-dihydrobenzo[d]isothiazole 1,1-dioxide] the figure was 0.415 µM.
As to `CC(=O)N(C)CC1NS(=O)(=O)c2ccc(-c3c[nH]c4cc(F)ccc34)cc21` (single isomer, unassigned; (-)) [Example 28, (−)-N-((5-(6-fluoro-1H-indol-3-yl)-1,1-dioxido-2,3-dihydrobenzo[d]isothiazol-3-yl)methyl)-N-methylacetamide], inhibition was half-maximal at 0.505 µM (IC50).
With `CC1c2cc(-c3c[nH]c4cc(F)ccc34)ccc2S(=O)(=O)N1C1CNC(=O)C1` (single isomer, unassigned; (-)) [Example 124, (−)-4-(5-(6-fluoro-1H-indol-3-yl)-3-methyl-1,1-dioxido-benzo[d]isothiazol-2(3H)-yl)pyrrolidin-2-one] the figure was 0.068 µM; with `CC1c2cc(-c3c[nH]c4cc(F)ccc34)ccc2S(=O)(=O)N1CCS(C)(=O)=O` (single isomer, unassigned; (-)) [Example 54, (−)-5-(6-fluoro-1H-indol-3-yl)-3-methyl-2-(2-(methylsulfonyl)ethyl)-2,3-dihydrobenzo[d]isothiazole 1,1-dioxide], 0.233 µM.

The values above are taken from patent US9873690B2, “3-indol substituted derivatives, pharmaceutical compositions and methods for use” (Pfizer Inc., priority 2015, dated 2018).
